Key:
SMN protein = SMN protein assay (MSD) in SMA patient fibroblasts (GM03813); type: cell-based, human
Method in brief: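 Absolute SMN protein measured by Mesoscale Discovery assay in lysates, calibrated per plate with SMN standards (1–19.5 μg/ml). Cells: GM03813 SMA fibroblasts, 7000/well, 48 h compound exposure at doses of 2.5 μM down to 0.6 nM.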

MDR1 = assay: in vitro; conditions: dog; for Papp A→B at 120 min, 5 μM: MDCK-MDR1, pH 7.4, MDCK-MDR1: Papp A-B (10^−6, cm/s); for Papp B→A at 120 min, 5 μM: MDCK-MDR1, pH 7.4, MDCK-MDR1: Papp B-A (10^−6, cm/s)
MDR1 (P-gp) = assay: MDCK-MDR1 permeability assay, blood-brain-barrier penetration potential; conditions: dog, MDCK-MDR1, pH 7.4, MDCK-MDR1 Efflux Ratio
[1] = test system: MDR1-MDCK cell monolayers; conditions: dog, MDCK-MDR1, 120 min, 5 μM, pH 7.4

SMILES	EC50 (SMN protein)	Papp A→B at 120 min, 5 μM (MDR1)	Papp B→A at 120 min, 5 μM (MDR1)	efflux ratio at 120 min, 5 μM (MDR1 (P-gp))	MDCK-MDR1: % Recov A-B (%) [1]	MDCK-MDR1: % Recov B-A (%) [1]
CN(c1cnc(-c2cc(F)c(-c3cn[nH]c3)cc2O)cn1)[C@@H]1CC2CC(F)(F)[C@@H](C1)N2 (single isomer, unassigned) [Compound 65E1]	101 to 500 nM	20.9 ×10⁻⁶ cm/s	54.5 ×10⁻⁶ cm/s	3	54%	71%
CN(c1cnc(-c2cc(F)c(-c3cn[nH]c3)cc2O)cn1)[C@@H]1CC2N[C@H](C1)CC2(F)F (single isomer, unassigned) [Compound 65E2]	501 to 10000 nM	28.3 ×10⁻⁶ cm/s	37.7 ×10⁻⁶ cm/s	1	54%	63%
CN(c1cnc(-c2cc(F)c(-c3cnn(C)c3)cc2O)cn1)[C@@H]1CC2CC(F)(F)[C@@H](C1)N2 (single isomer, unassigned) [Compound 66E1]	101 to 500 nM	21.9 ×10⁻⁶ cm/s	20.7 ×10⁻⁶ cm/s	1	42%	51%
CN(c1cnc(-c2cc(F)c(-c3cnn(C)c3)cc2O)cn1)[C@@H]1CC2N[C@H](C1)CC2(F)F (single isomer, unassigned) [Compound 66E2]	501 to 10000 nM	22.7 ×10⁻⁶ cm/s	18.3 ×10⁻⁶ cm/s	1	43%	55%
COc1cc(-c2cc(O)c(-c3cnc(N(C)[C@@H]4CC5CC(F)(F)[C@@H](C4)N5)cn3)cc2F)cnn1 (single isomer, unassigned) [Compound 67E1]	501 to 10000 nM	22.2 ×10⁻⁶ cm/s	42.5 ×10⁻⁶ cm/s	2	62%	74%
COc1cc(-c2cc(O)c(-c3cnc(N(C)[C@@H]4CC5N[C@H](C4)CC5(F)F)cn3)cc2F)cnn1 (single isomer, unassigned) [Compound 67E2]	501 to 10000 nM	14.3 ×10⁻⁶ cm/s	55.4 ×10⁻⁶ cm/s	4	60%	68%
COc1cc(-c2ccc(-c3cnc(N(C)[C@@H]4CC5N[C@H](C4)CC5(F)F)cn3)c(O)c2)cnn1 (single isomer, unassigned) [Compound 68E1]	501 to 10000 nM	9.35 ×10⁻⁶ cm/s	43 ×10⁻⁶ cm/s	5	63%	86%
Cc1nc(-c2ccc(-c3cnc(N(C)[C@@H]4CC5CC[C@H](N5)[C@@H]4F)cn3)c(O)c2)no1 (single isomer, unassigned) [Compound 69E1]	501 to 10000 nM	9.43 ×10⁻⁶ cm/s	17.9 ×10⁻⁶ cm/s	2	49%	61%
Cc1nc(-c2ccc(-c3cnc(N(C)[C@H]4C[C@@H]5CCC(N5)[C@H]4F)cn3)c(O)c2)no1 (single isomer, unassigned) [Compound 69E2]	101 to 500 nM	9.26 ×10⁻⁶ cm/s	20.3 ×10⁻⁶ cm/s	2	47%	62%
CN(c1cnc(-c2ccc(-c3cnn(C)c3)cc2O)cn1)[C@@H]1CC2COC[C@H](N2)[C@@H]1F (single isomer, unassigned) [Compound 73E1]	101 to 500 nM	11.5 ×10⁻⁶ cm/s	38.1 ×10⁻⁶ cm/s	3	50%	71%
CN(c1cnc(-c2ccc(-c3cnn(C)c3)cc2O)cn1)[C@H]1C[C@@H]2COCC(N2)[C@H]1F (single isomer, unassigned) [Compound 73E2]	501 to 10000 nM	9.34 ×10⁻⁶ cm/s	49.1 ×10⁻⁶ cm/s	5	51%	74%
COc1cc(-c2ccc(-c3cnc(N(C)[C@@H]4CC5COC[C@H](N5)[C@@H]4F)cn3)c(O)c2)cnn1 (single isomer, unassigned) [Compound 74E1]	501 to 10000 nM	1.87 ×10⁻⁶ cm/s	45.5 ×10⁻⁶ cm/s	24	88%	98%
CN(c1cnc(-c2ccc(-c3cc[nH]c(=O)c3)cc2O)cn1)[C@@H]1CC2CC[C@H](N2)[C@@H]1F (single isomer, unassigned) [Compound 76E1]	51 to 100 nM	0.29 ×10⁻⁶ cm/s	30.1 ×10⁻⁶ cm/s	102	89%	75%
Cc1cc(-c2ccc(-c3cnc(N(C)[C@@H]4CC5CC[C@H](N5)[C@@H]4F)cn3)c(O)c2)cc(=O)[nH]1 (single isomer, unassigned) [Compound 77E1]	501 to 10000 nM	0.34 ×10⁻⁶ cm/s	21.9 ×10⁻⁶ cm/s	64	64%	71%
Cc1cc(-c2ccc(-c3cnc(N(C)[C@H]4C[C@@H]5CCC(N5)[C@H]4F)cn3)c(O)c2)cc(=O)[nH]1 (single isomer, unassigned) [Compound 77E2]	501 to 10000 nM	0.32 ×10⁻⁶ cm/s	14.9 ×10⁻⁶ cm/s	47	44%	50%
CN(c1cnc(-c2ccc(C3=CC(=O)NC3)cc2O)cn1)[C@@H]1CC2CC[C@H](N2)[C@@H]1F (single isomer, unassigned) [Compound 78E1]	501 to 10000 nM	0.77 ×10⁻⁶ cm/s	41 ×10⁻⁶ cm/s	53	81%	85%
CN(c1cnc(-c2ccc(-c3nnco3)cc2O)cn1)[C@@H]1CC2CC[C@H](N2)[C@@H]1F (single isomer, unassigned) [Compound 80E1]	101 to 500 nM	5.24 ×10⁻⁶ cm/s	21.5 ×10⁻⁶ cm/s	4	63%	76%
CN(c1cnc(-c2ccc(-c3nnco3)cc2O)cn1)[C@H]1C[C@@H]2CCC(N2)[C@H]1F (single isomer, unassigned) [Compound 80E2]	501 to 10000 nM	8.23 ×10⁻⁶ cm/s	30.8 ×10⁻⁶ cm/s	4	73%	80%
CN(c1cnc(-c2ccc(-c3cc[nH]c(=O)c3)cc2O)cn1)[C@@H]1CC2COC[C@H](N2)[C@@H]1F (single isomer, unassigned) [Compound 82E1]	501 to 10000 nM	0.51 ×10⁻⁶ cm/s	39.2 ×10⁻⁶ cm/s	77	83%	87%
CN(c1cnc(-c2ccc(-c3cc[nH]c(=O)c3)cc2O)cn1)[C@H]1C[C@@H]2COCC(N2)[C@H]1F (single isomer, unassigned) [Compound 82E2]	501 to 10000 nM	0.27 ×10⁻⁶ cm/s	32.2 ×10⁻⁶ cm/s	120	45%	54%
CN(c1cnc(-c2ccc(C3=CCOC3)cc2O)cn1)[C@@H]1CC2CC[C@H](N2)[C@@H]1F (single isomer, unassigned) [Compound 84E1]	501 to 10000 nM	3.01 ×10⁻⁶ cm/s	7.82 ×10⁻⁶ cm/s	3	26%	59%
CN(c1cnc(-c2ccc(C3=CCOC3)cc2O)cn1)[C@H]1C[C@@H]2CCC(N2)[C@H]1F (single isomer, unassigned) [Compound 84E2]	16 to 50 nM	4.64 ×10⁻⁶ cm/s	14.9 ×10⁻⁶ cm/s	3	28%	66%
C[C@@]12CC[C@@](C)(N1)[C@@H](F)[C@@H](Oc1cnc(-c3ccc(-c4cn[nH]c4)cc3O)cn1)C2 [Compound 2E1, 2-(5-(((1R,2R,35,5S)-2-fluoro-1,5-dimethyl-8-azabicyclo[3.2.1]octan-3-yl)oxy)pyrazin-2-yl)-5-(1H-pyrazol-4-yl)phenol]	501 to 10000 nM	7.93 ×10⁻⁶ cm/s	40.7 ×10⁻⁶ cm/s	5	71%	86%
C[C@]12CC[C@](C)(N1)[C@H](F)[C@H](Oc1cnc(-c3ccc(-c4cn[nH]c4)cc3O)cn1)C2 [Compound 2E2, 2-(5-(((1S,2S,3R,5R)-2-fluoro-1,5-dimethyl-8-azabicyclo[3.2.1]octan-3-yl)oxy)pyrazin-2-yl)-5-(1H-pyrazol-4-yl)phenol]	501 to 10000 nM	9.6 ×10⁻⁶ cm/s	34.7 ×10⁻⁶ cm/s	4	71%	79%
CN(c1cnc(-c2ccc(-c3cnn(C)c3)cc2O)cn1)[C@@H]1C[C@H]2CCC[C@H](N2)[C@@H]1F [Compound 4E1, 2-(5-(((1S,2S,3R,5R)-2-fluoro-9-azabicyclo[3.3.1]nonan-3-yl)(methyl)amino)pyrazin-2-yl)-5-(1-methyl-1H-pyrazol-4-yl)phenol]	51 to 100 nM	4.89 ×10⁻⁶ cm/s	31.4 ×10⁻⁶ cm/s	6	44%	66%

Reference: patent publication US11964971B2, “Methods and compositions for modulating splicing” (Skyhawk Therapeutics, Inc., priority 2019, dated 2024)
